# Data reported in patent publication US12077503B2, “Substituted cyclic amides and their use as herbicides” (FMC CORPORATION, priority 2015, dated 2024).
# Read-outs that look alike come from different tables or passages of the source.
# Columns and labels:
# Assay type in all cases: in vivo
# [1] = tested on: Galium (catchweed bedstraw, Galium aparine); assay: Test A postemergence; conditions: Galium, post-emergence, 240 h, postemergence; for pest or weed control at 125 g/ha: 125 g ai/ha
# Summary of the method: (§1)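 Ratings of 0 (no effect) to 100 (complete control) come from visual comparison with untreated controls roughly 10 d after treatment. Test chemicals, formulated in a non-phytotoxic solvent mixture with surfactant, were applied either as a preemergence directed soil spray on seeded soil or postemergence to one- to two-leaf plants 2 to 10 cm tall.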
# [2] = tested on: Kochia (Kochia scoparia); assay: Test A postemergence; conditions: Bassia scoparia, post-emergence, 240 h, postemergence; for pest or weed control at 125 g/ha: 125 g ai/ha
# Summary of the method: as §1
# [3] = tested on: barnyardgrass (Echinochloa crus-galli); assay: Test A postemergence; conditions: Echinochloa crus-galli, post-emergence, 240 h, postemergence; for pest or weed control at 125 g/ha: 125 g ai/ha
# Summary of the method: as §1
# [4] = tested on: pigweed (Amaranthus retroflexus); assay: Test A postemergence; conditions: Amaranthus retroflexus, post-emergence, 240 h, postemergence; for pest or weed control at 125 g/ha: 125 g ai/ha
# Summary of the method: as §1
# [5] = tested on: ragweed (common ragweed, Ambrosia elatior); assay: Test A postemergence; conditions: Ambrosia artemisiifolia, post-emergence, 240 h, postemergence; for pest or weed control at 125 g/ha: 125 g ai/ha
# Summary of the method: as §1
# [6] = tested on: ryegrass, Italian (Italian ryegrass, Lolium multiflorum); assay: Test A postemergence; conditions: Lolium multiflorum, post-emergence, 240 h, postemergence; for pest or weed control at 125 g/ha: 125 g ai/ha
# Summary of the method: as §1
# [7] = tested on: wheat (Triticum aestivum); assay: Test A postemergence; conditions: Triticum aestivum, post-emergence, 240 h, postemergence; for plant injury at 125 g/ha: 125 g ai/ha
# Summary of the method: as §1
# [8] = tested on: corn (Zea mays); assay: Test A postemergence; conditions: Zea mays, post-emergence, 240 h, postemergence; for plant injury at 125 g/ha: 125 g ai/ha
# Summary of the method: as §1
# [9] = tested on: blackgrass (Alopecurus myosuroides); assay: Test A postemergence; conditions: Alopecurus myosuroides, post-emergence, 240 h, postemergence; for pest or weed control at 125 g/ha: 125 g ai/ha
# Summary of the method: as §1
# [10] = tested on: giant foxtail (Setaria faberii); assay: Test A postemergence; conditions: Setaria faberi, post-emergence, 240 h, postemergence; for pest or weed control at 125 g/ha: 125 g ai/ha
# Summary of the method: as §1
# [11] = tested on: pigweed (Amaranthus retroflexus); assay: Test A preemergence; conditions: Amaranthus retroflexus, pre-emergence, 240 h; for pest or weed control at 125 g/ha: 125 g ai/ha; for pest or weed control at 500 g/ha: 500 g ai/ha
# [12] = tested on: barnyardgrass (Echinochloa crus-galli); assay: Test B flooded paddy test; conditions: Echinochloa crus-galli, 250 g ai/ha, Flood, read-out: Barnyardgrass plant response rating
# Summary of the method: (§2)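 Rating scale 0–100 (visual, vs untreated controls) after a 13–15 d greenhouse period; application to the flood layer, 3 cm above soil and maintained; plants at 2-leaf stage when treated.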
# [13] = tested on: sedge, umbrella (small-flower umbrella sedge, Cyperus difformis); assay: Test B flooded paddy test; conditions: Cyperus difformis, 250 g ai/ha, Flood, read-out: Sedge, Umbrella plant response rating
# Summary of the method: as §2
# [14] = tested on: ducksalad (Heteranthera limosa); assay: Test B flooded paddy test; conditions: Heteranthera limosa, 250 g ai/ha, Flood, read-out: Ducksalad plant response rating
# Summary of the method: as §2
# [15] = tested on: rice (Oryra sativa); assay: Test B flooded paddy test; conditions: Oryza sativa, 250 g ai/ha, Flood, read-out: Rice plant response rating
# Summary of the method: as §2
# [16] = preemergence, 0 to 100 scale where 0 is no effect and 100 is complete control, read-out: Pigweed plant response rating
# [17] = 0 to 100 scale where 0 is no effect and 100 is complete control
# [18] = visual injury rating after approximately 10 d, read-out: Galium plant response rating (0 to 100 scale, 0 no effect, 100 complete control)
# [19] = visual injury rating after approximately 10 d, read-out: Kochia plant response rating (0 to 100 scale, 0 no effect, 100 complete control)
# [20] = visual injury rating after approximately 10 d, read-out: Barnyardgrass plant response rating (0 to 100 scale, 0 no effect, 100 complete control)
# [21] = visual injury rating after approximately 10 d, read-out: Pigweed plant response rating (0 to 100 scale, 0 no effect, 100 complete control)
# [22] = visual injury rating after approximately 10 d, read-out: Ragweed plant response rating (0 to 100 scale, 0 no effect, 100 complete control)
# [23] = visual injury rating after approximately 10 d, read-out: Ryegrass, Italian plant response rating (0 to 100 scale, 0 no effect, 100 complete control)
# [24] = visual injury rating after approximately 10 d, read-out: Wheat plant response rating (0 to 100 scale, 0 no effect, 100 complete control)
# [25] = visual injury rating after approximately 10 d, read-out: Corn plant response rating (0 to 100 scale, 0 no effect, 100 complete control)
# [26] = visual injury rating after approximately 10 d, read-out: Blackgrass plant response rating (0 to 100 scale, 0 no effect, 100 complete control)
# [27] = visual injury rating after approximately 10 d, read-out: Foxtail, Giant plant response rating (0 to 100 scale, 0 no effect, 100 complete control)
# [28] = Preemergence, visual injury vs untreated controls after approximately 10 d, read-out: Pigweed plant response rating (0 to 100 scale where 0 is no effect and 100 is complete control)
# [29] = scale of 0 to 100 where 0 is no effect and 100 is complete control
structure (smiles),measurement,setting,value
O=C1NC[C@H](c2ccc(F)c(OC(F)(F)C(F)(F)Br)c2)[C@H]1C(=O)Nc1ccccc1F [Compound 1134],pest or weed control at 125 g/ha,"[1]; visual injury on 0 to 100 scale (0 no effect, 100 complete control), approx. 10 d, read-out: Galium plant response rating",20%
same,pest or weed control at 500 g/ha,"[1]; 500 g ai/ha, 0 to 100 scale, 0 is no effect, 100 is complete control, read-out: Galium plant response rating",70%
same,pest or weed control at 125 g/ha,"[2]; visual injury on 0 to 100 scale (0 no effect, 100 complete control), approx. 10 d, read-out: Kochia plant response rating",0%
same,pest or weed control at 500 g/ha,"[2]; 500 g ai/ha, 0 to 100 scale, 0 is no effect, 100 is complete control, read-out: Kochia plant response rating",30%
same,pest or weed control at 125 g/ha,"[3]; visual injury on 0 to 100 scale (0 no effect, 100 complete control), approx. 10 d, read-out: Barnyardgrass plant response rating",60%
same,pest or weed control at 500 g/ha,"[3]; 500 g ai/ha, 0 to 100 scale, 0 is no effect, 100 is complete control, read-out: Barnyardgrass plant response rating",80%
same,pest or weed control at 125 g/ha,"[4]; visual injury on 0 to 100 scale (0 no effect, 100 complete control), approx. 10 d, read-out: Pigweed plant response rating",0%
same,pest or weed control at 500 g/ha,"[4]; 500 g ai/ha, 0 to 100 scale, 0 is no effect, 100 is complete control, read-out: Pigweed plant response rating",20%
same,pest or weed control at 125 g/ha,"[5]; visual injury on 0 to 100 scale (0 no effect, 100 complete control), approx. 10 d, read-out: Ragweed plant response rating",0%
same,pest or weed control at 500 g/ha,"[5]; 500 g ai/ha, 0 to 100 scale, 0 is no effect, 100 is complete control, read-out: Ragweed plant response rating",30%
same,pest or weed control at 125 g/ha,"[6]; visual injury on 0 to 100 scale (0 no effect, 100 complete control), approx. 10 d, read-out: Ryegrass, Italian plant response rating",20%
same,pest or weed control at 500 g/ha,"[6]; 500 g ai/ha, 0 to 100 scale, 0 is no effect, 100 is complete control, read-out: Ryegrass, Italian plant response rating",20%
same,plant injury at 125 g/ha,"[7]; visual injury on 0 to 100 scale (0 no effect, 100 complete control), approx. 10 d, read-out: Wheat plant response rating",0%
same,plant injury at 500 g/ha,"[7]; 500 g ai/ha, 0 to 100 scale, 0 is no effect, 100 is complete control, read-out: Wheat plant response rating",20%
same,plant injury at 125 g/ha,"[8]; visual injury on 0 to 100 scale (0 no effect, 100 complete control), approx. 10 d, read-out: Corn plant response rating",20%
same,plant injury at 500 g/ha,"[8]; 500 g ai/ha, 0 to 100 scale, 0 is no effect, 100 is complete control, read-out: Corn plant response rating",20%
same,pest or weed control at 125 g/ha,"[9]; visual injury on 0 to 100 scale (0 no effect, 100 complete control), approx. 10 d, read-out: Blackgrass plant response rating",20%
same,pest or weed control at 500 g/ha,"[9]; 500 g ai/ha, 0 to 100 scale, 0 is no effect, 100 is complete control, read-out: Blackgrass plant response rating",50%
same,pest or weed control at 125 g/ha,"[10]; visual injury on 0 to 100 scale (0 no effect, 100 complete control), approx. 10 d, read-out: Foxtail, Giant plant response rating",30%
same,pest or weed control at 500 g/ha,"[10]; 500 g ai/ha, 0 to 100 scale, 0 is no effect, 100 is complete control, read-out: Foxtail, Giant plant response rating",80%
same,pest or weed control at 125 g/ha,"[11]; preemergence, 0 to 100 scale where 0 is no effect and 100 is complete control, approx. 10 d, read-out: Pigweed plant response rating",0%
same,pest or weed control at 500 g/ha,[11]; [16],30%
same,pest or weed control at 250 g/ha,[12]; [17],0%
same,pest or weed control at 250 g/ha,[13]; [17],0%
same,pest or weed control at 250 g/ha,[14]; [17],0%
same,pest or weed control at 250 g/ha,[15]; [17],0%
CSc1ccccc1NC(=O)[C@H]1C(=O)N(C)C[C@@H]1c1cc(C)cc(F)c1 [Compound 851],pest or weed control at 125 g/ha,[1]; [18],30%
same,pest or weed control at 125 g/ha,[2]; [19],0%
same,pest or weed control at 125 g/ha,[3]; [20],90%
same,pest or weed control at 125 g/ha,[4]; [21],0%
same,pest or weed control at 125 g/ha,[5]; [22],0%
same,pest or weed control at 125 g/ha,[6]; [23],0%
same,plant injury at 125 g/ha,[7]; [24],20%
same,plant injury at 125 g/ha,[8]; [25],0%
same,pest or weed control at 125 g/ha,[9]; [26],0%
same,pest or weed control at 125 g/ha,[10]; [27],90%
same,pest or weed control at 125 g/ha,[11]; [16],60%
same,pest or weed control at 500 g/ha,[11]; [28],90%
same,pest or weed control at 250 g/ha,[12]; [29],0%
same,pest or weed control at 250 g/ha,[13]; [29],0%
same,pest or weed control at 250 g/ha,[14]; [29],90%
same,pest or weed control at 250 g/ha,[15]; [29],0%
COc1c(F)ccc([C@H]2CN(C)C(=O)[C@@H]2C(=O)Nc2ccc(F)c(F)c2F)c1Cl [Compound 895],pest or weed control at 125 g/ha,[1]; [18],70%
same,pest or weed control at 125 g/ha,[2]; [19],70%
same,pest or weed control at 125 g/ha,[3]; [20],90%
same,pest or weed control at 125 g/ha,[4]; [21],40%
same,pest or weed control at 125 g/ha,[5]; [22],0%
same,pest or weed control at 125 g/ha,[6]; [23],60%
same,plant injury at 125 g/ha,[7]; [24],40%
same,plant injury at 125 g/ha,[8]; [25],80%
same,pest or weed control at 125 g/ha,[9]; [26],60%
same,pest or weed control at 125 g/ha,[10]; [27],90%
same,pest or weed control at 125 g/ha,[11]; [16],50%
same,pest or weed control at 500 g/ha,[11]; [28],50%
same,pest or weed control at 250 g/ha,[12]; [29],75%
same,pest or weed control at 250 g/ha,[13]; [29],0%
same,pest or weed control at 250 g/ha,[14]; [29],85%
same,pest or weed control at 250 g/ha,[15]; [29],0%
COc1c(F)ccc([C@H]2CN(C)C(=O)[C@@H]2C(=O)Nc2ccccc2F)c1Cl [Compound 892],pest or weed control at 125 g/ha,[1]; [18],20%
same,pest or weed control at 125 g/ha,[2]; [19],40%
same,pest or weed control at 125 g/ha,[3]; [20],90%
same,pest or weed control at 125 g/ha,[4]; [21],0%
same,pest or weed control at 125 g/ha,[5]; [22],0%
same,pest or weed control at 125 g/ha,[6]; [23],60%
same,plant injury at 125 g/ha,[7]; [24],0%
same,plant injury at 125 g/ha,[8]; [25],0%
same,pest or weed control at 125 g/ha,[9]; [26],0%
same,pest or weed control at 125 g/ha,[10]; [27],90%
same,pest or weed control at 125 g/ha,[11]; [16],0%
same,pest or weed control at 500 g/ha,[11]; [28],40%
same,pest or weed control at 250 g/ha,[12]; [29],65%
same,pest or weed control at 250 g/ha,[13]; [29],0%
same,pest or weed control at 250 g/ha,[14]; [29],80%
same,pest or weed control at 250 g/ha,[15]; [29],0%
